From patent publication US20250340565A1, “CD73 INHIBITOR COMPOUNDS” (AdoRx Therapeutics Limited, priority 2022, published 2025) come the findings set out here.

For assay [1], the target named is human (h)CD73 (amino acids Trp27-Lys547) (Homo sapiens, UniProt P21589). Kind of assay: CD73 inhibition assay (Malachite Green phosphate detection). The settings on record: 250 pM hCD73, 12.5 μM AMP, 20 min pre-incubation, absorbance 620 nm. The class given is biochemical. As to the method:
Compound inhibition of human (h)CD73 (amino acids Trp27-Lys547, R&D Systems 5795-EN-500) enzymatic activity was tested via the Malachite Green Phosphate Detection Kit (R&D DY996). Experiments were performed in 20 μL Tris buffer (25 mM Tris pH 7.5, 5 mM MgCl2, 0.002% Tween20), with 250 pM of hCD73. Test compounds of interest were prepared in a threefold serial dilution in DMSO and added to the assay to give the appropriate final concentration, with the assay DMSO concentration being 1%. Compounds were pre-incubated for 20 minutes with hCD73 in a 384 well clear plate (Greiner 781101), followed by the addition of adenosine monophosphate (AMP) to 12.5 μM. The enzymatic reaction was carried out for 20 min at room temperature. 5 μL of Malachite kit reagent A was added to stop the reaction (contains 3M H2SO4) and after 10 min, 5 μL of Malachite kit reagent B was added (Malachite Green). After 30 min, absorbance at 620 nm was read on a BMG Pherastar FSX.
Data were normalised to measurements in the absence of competing compound (0% inhibition) and in the presence of 10 μM control compound (100% inhibition).

For assay [2], the target named is CD73 activity in U138-MG cells (Homo sapiens (Human), UniProt P21589). Kind of assay: U138-MG inhibition assay (inorganic phosphate from AMP, PiColorLock Gold). The class given is cell-based. The settings on record: 100 μM AMP, 30 min pre-incubation, 1 hour at 37° C. As to the method: U138-MG cells from ATCC are cultured in DMEM (Gibco 31966) with 10% FBS. Cells are seeded into 96-well culture plates (5,000 cell/well) in 100 μL of media for 24 hr. Cells are washed twice with 200 μL of assay buffer (20 mM HEPES, pH 7.4; 137 mM NaCl; 5.4 mM KCl; 1.3 mM CaCl2; 4.2 mM NaHCO3; 1 mg/mL glucose) to remove residual inorganic phosphate. CD73 inhibitor is added to each well in 100 μl volume and preincubated for 30 mins at 37° C. An equal volume of AMP substrate (Sigma A1572) is added to each well at a final concentration of 100 μM and incubated at 37° C. for 1 hour. Control wells containing cells but lacking added AMP, define the assay signal equivalent to 100% inhibition of CD73 activity. Supernatant is removed for measurement of inorganic phosphate using the PiColorLock Gold kit (Abcam, ab 270004).
Sequence of CD73 activity in U138-MG cells (P21589 27-574): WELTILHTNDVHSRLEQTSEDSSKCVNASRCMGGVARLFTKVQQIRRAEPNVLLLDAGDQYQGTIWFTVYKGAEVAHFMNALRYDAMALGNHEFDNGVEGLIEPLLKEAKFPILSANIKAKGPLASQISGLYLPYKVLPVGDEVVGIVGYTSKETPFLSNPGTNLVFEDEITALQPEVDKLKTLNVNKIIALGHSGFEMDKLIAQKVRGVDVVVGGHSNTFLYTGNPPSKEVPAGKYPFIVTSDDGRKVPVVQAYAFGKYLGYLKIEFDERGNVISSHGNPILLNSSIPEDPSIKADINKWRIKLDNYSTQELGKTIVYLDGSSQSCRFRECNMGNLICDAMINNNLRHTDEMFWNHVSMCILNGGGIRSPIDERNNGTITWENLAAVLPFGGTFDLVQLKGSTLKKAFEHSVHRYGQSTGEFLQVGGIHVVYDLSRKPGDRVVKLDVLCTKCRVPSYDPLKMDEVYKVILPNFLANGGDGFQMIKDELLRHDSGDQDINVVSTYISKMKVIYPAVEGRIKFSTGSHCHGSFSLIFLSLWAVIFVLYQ
The IC50 values of test compounds are determined as the inflection point of the sigmoidal concentration response curve.

Take `COC1CN(c2nccn3nc(-c4c[nH]c(=O)[nH]c4=O)cc23)CC1(F)F` (centres unmarked) [Example 25.3, 5-[4-(3,3-difluoro-4-methoxy-pyrrolidin-1-yl)pyrazolo[1,5-a]pyrazin-2-yl]-1H-pyrimidine-2,4-dione]: the half-inhibitory concentration (IC50) in assay [1] came to 54.7 nM; in assay [2] it was 91 nM. In the case of `Cc1nc(N2CC(C)(C)C(F)(F)C2)c2cc(-c3c[nH]c(=O)[nH]c3=O)nn2c1Cl` [Example 25.15, 5-[7-Chloro-4-(3,3-difluoro-4,4-dimethyl-pyrrolidin-1-yl)-6-methyl-pyrazolo[1,5-a]pyrazin-2-yl]-1H-pyrimidine-2,4-dione], in assay [2], the IC50 was found to be 18 nM. On the same count and under the same terms, the result for `CC1(C)CN(c2ncc(I)n3nc(-c4c[nH]c(=O)[nH]c4=O)cc23)CC1(F)F` [Example 25.12, 5-[4-(3,3-difluoro-4,4-dimethyl-pyrrolidin-1-yl)-7-iodo-pyrazolo[1,5-a]pyrazin-2-yl]-1H-pyrimidine-2,4-dione] reads 38 nM.

Compound `O=c1[nH]cc(-n2cc3c(N4C[C@@H]5COC[C@H]5C4)ncnc3n2)c(=O)[nH]1` [Example 13.10, 5-[4-[(3aR,6aR)-1,3,3a,4,6,6a-Hexahydrofuro[3,4-c]pyrrol-5-yl]pyrazolo[3,4-d]pyrimidin-2-yl]-5H-pyrimidine-2,4-dione] had a concentration for half-maximal inhibition (IC50) in assay [2] of 2500 nM.

Take `O=c1[nH]cc(-c2cc3c(N4CC(F)(F)C5(CC5)C4)nccn3n2)c(=O)[nH]1` [Example 25.2, 5-[4-(7,7-Difluoro-5-azaspiro[2.4]heptan-5-yl)pyrazolo[1,5-a]pyrazin-2-yl]-1H-pyrimidine-2,4-dione]: the IC50 is 83.7 nM in assay [1] and 58.8 nM in assay [2]. With `CN1CCOC(COC2CN(c3nccn4nc(-c5c[nH]c(=O)[nH]c5=O)cc34)CC2(F)F)C1` (centres unmarked) [Example 25.6, 5-[4-[3,3-difluoro-4-[(4-methylmorpholin-2-yl)methoxy]pyrrolidin-1-yl]pyrazolo[1,5-a]pyrazin-2-yl]-1H-pyrimidine-2,4-dione], the results for the half-maximal inhibitory concentration (IC50) in assay [1] and in assay [2] were 99 nM and 46 nM, respectively.

Take `O=c1[nH]cc(-n2cc3c(N4CC(O)C(F)(F)C4)ncc(F)c3n2)c(=O)[nH]1` (centres unmarked) [Example 26.3, 5-[4-(3,3-difluoro-4-hydroxy-pyrrolidin-1-yl)-7-fluoro-pyrazolo[4,3-c]pyridin-2-yl]-1H-pyrimidine-2,4-dione]: the 50% inhibitory concentration (IC50) in assay [1] was determined as 35.1 nM; in assay [2], 16 nM. On the same counts, the results for `CC(C)NC(=O)OC1CN(c2ncnc3oc(-c4c[nH]c(=O)[nH]c4=O)cc23)CC1(F)F` (centres unmarked) [Example 22.2, [1-[6-(2,4-Dioxo-1H-pyrimidin-5-yl)furo[2,3-d]pyrimidin-4-yl]-4,4-difluoro-pyrrolidin-3-yl]N-isopropylcarbamate] are 170 nM and 54.9 nM.

On to `CC1(C)CN(c2ccnc3sc(-c4c[nH]c(=O)[nH]c4=O)cc23)CC1(F)F` [Example 14.1, 5-[4-(3,3-Difluoro-4,4-dimethyl-pyrrolidin-1-yl)thieno[2,3-b]pyridin-2-yl]-1H-pyrimidine-2,4-dione], for which the IC50 in assay [1] amounted to 256 nM; in assay [2], 1320 nM. As for `O=c1[nH]cc(-c2cc3c(N4CC(O)C(F)(F)C4)nccn3n2)c(=O)[nH]1` (centres unmarked) [Example 25.5, 5-[4-(3,3-difluoro-4-hydroxy-pyrrolidin-1-yl)pyrazolo[1,5-a]pyrazin-2-yl]-1H-pyrimidine-2,4-dione], the IC50 in assay [1] amounted to 71.9 nM; in assay [2], 170 nM. As to `O=c1[nH]cc(-c2cc3c(N4CCC5(COC5)C4)nccn3n2)c(=O)[nH]1` [Example 25.4, 5-[4-(2-oxa-7-azaspiro[3.4]octan-7-yl)pyrazolo[1,5-a]pyrazin-2-yl]-1H-pyrimidine-2,4-dione], the IC50 came to 141 nM in assay [1] and 115 nM in assay [2]. `O=c1[nH]cc(-c2cc3c(NCc4ccc(Cl)cc4)ncnc3o2)c(=O)[nH]1` [Example 19.2, 5-[4-[(4-Chlorophenyl)methylamino]furo[2,3-d]pyrimidin-6-yl]-1H-pyrimidine-2,4-dione] registered a half-inhibitory concentration (IC50) in assay [1] of 9730 nM. The same measure, in the same setting: the same measure for `O=c1[nH]cc(-c2cc3c(N4CCC(OCCN5CCCCC5)C4)nccc3s2)c(=O)[nH]1` (centres unmarked) [Example 9, 5-[4-[3-[2-(1-Piperidyl)ethoxy]pyrrolidin-1-yl]thieno[3,2-c]pyridin-2-yl]-1H-pyrimidine-2,4-dione]: 283 nM. Consider `CC1(C)CN(c2ncnc3sc(-c4c[nH]c(=O)[nH]c4=O)cc23)C1` [Example 1.2, 5-[4-(3,3-Dimethylazetidin-1-yl)thieno[2,3-d]pyrimidin-6-yl]-1H-pyrimidine-2,4-dione], for which the concentration for half-maximal inhibition (IC50) in assay [1] amounted to 428 nM; in assay [2], 1010 nM. For the compound `COC1CN(c2ncc(F)c3nn(-c4c[nH]c(=O)[nH]c4=O)cc23)CC1(F)F` (centres unmarked) [Example 26.2, 5-[4-(3,3-difluoro-4-methoxy-pyrrolidin-1-yl)-7-fluoro-pyrazolo[4,3-c]pyridin-2-yl]-1H-pyrimidine-2,4-dione], the IC50 in assay [1] worked out at 43.3 nM; in assay [2], 12 nM. In the same order, the values of `O=c1[nH]cc(-c2cc3c(N4CC(OCCN5CCOCC5)C(F)(F)C4)nccn3n2)c(=O)[nH]1` (centres unmarked) [Example 25.7, 5-[4-[3,3-difluoro-4-(2-morpholinoethoxy)pyrrolidin-1-yl]pyrazolo[1,5-a]pyrazin-2-yl]-1H-pyrimidine-2,4-dione] are 132 nM and 65 nM. In the case of `CC1(C)CN(c2ncnc3nc(-c4c[nH]c(=O)[nH]c4=O)sc23)CC1(F)F` [Example 6.1, 5-[7-(3,3-difluoro-4,4-dimethyl-pyrrolidin-1-yl)thiazolo[4,5-d]pyrimidin-2-yl]-1H-pyrimidine-2,4-dione], the IC50 in assay [1] turned out to be 94 nM; in assay [2] it was 66 nM. As for `O=c1[nH]cc(-c2cc3c(N4CCC(OCc5ccccc5)C4)ncnc3s2)c(=O)[nH]1` (centres unmarked) [Example 4.2, 5-[4-(3-Benzyloxypyrrolidin-1-yl)thieno[2,3-d]pyrimidin-6-yl]-1H-pyrimidine-2,4-dione], the IC50 in assay [1] was found to be 197 nM; in assay [2], 3140 nM. `CN1CCOC(COC2CN(c3ncc(F)c4nn(-c5c[nH]c(=O)[nH]c5=O)cc34)CC2(F)F)C1` (centres unmarked) [Example 26.6, 5-[4-[3,3-difluoro-4-[(4-methylmorpholin-2-yl)methoxy]pyrrolidin-1-yl]-7-fluoro-pyrazolo[4,3-c]pyridin-2-yl]-1H-pyrimidine-2,4-dione]: the IC50 was determined as 59 nM in assay [1] and 11 nM in assay [2]. On to `CC(C)NC(=O)OCC(F)(F)CNc1ncnc2oc(-c3c[nH]c(=O)[nH]c3=O)cc12` [Example 20, [3-[[6-(2,4-Dioxo-1H-pyrimidin-5-yl)furo[2,3-d]pyrimidin-4-yl]amino]-2,2-difluoro-propyl]N-isopropylcarbamate], for which the results for the IC50 in assay [1] and in assay [2] were 834 nM and 744 nM, respectively.
